In paper PMC3254257 (Bioconjugate Chemistry, 2011):

Legend:
Aqueous solubility = type: physicochemical; conditions: water
Stability in serum = type: in vitro ADME, bovine; conditions: 37°C; for relative serum stability: 100% FBS, 10 h
[1] = Tetrazine cycloaddition kinetics with norbornene; type: physicochemical; conditions: PBS pH 7.4, 37°C, 5% DMSO, excess NB
[2] = Tetrazine cycloaddition kinetics with TCO; type: physicochemical; conditions: among tetrazines of this study

| aqueous solubility (Aqueous solubility) | time to formation of a precipitate in FBS (Stability in serum; FBS, serum stability could not be measured) [h] | relative serum stability (Stability in serum) | Structure (SMILES) | cycloaddition kinetics with NB compared to hydrogen substituted tetrazine 1 [1] | relative cycloaddition kinetics with TCO [2] |
| --- | --- | --- | --- | --- | --- |
| not soluble to any measurable amount |  |  | c1ccc(-c2nnc(-c3ccccc3)nn2)cc1 [3,6-diphenyl tetrazine, reference compound] |  |  |
|  | 1.5 to 2 |  | Cl.NCc1ccc(-c2nnc(-c3ccccn3)nn2)cc1 [Tetrazine 3, (4-(6-(Pyridin-2-yl)-1,2,4,5-tetrazin-3-yl)phenyl)methanamine hydrochloride] |  |  |
|  |  | least stable | Cl.NCc1ccc(-c2nnc(-c3ncccn3)nn2)cc1 [Tetrazine 4, (4-(6-(Pyrimidin-2-yl)-1,2,4,5-tetrazin-3-yl)phenyl)methanamine hydrochloride] | faster kinetics |  |
| extremely water soluble |  | best serum stability | Cc1nnc(CCCCCN)nn1.Cl [Tetrazine 6, 5-(6-Methyl-1,2,4,5-tetrazin-3-yl)pentan-1-amine hydrochloride] | slower cycloaddition reactions | slowest reaction kinetics |
